Measurements published in ChEMBL document CHEMBL4043230, “Synthesis and biological evaluation of peptide-derived TSLP inhibitors” (Bioorg Med Chem Lett, 2017).
Where a SMILES comes first, the peptide text is derived from it.

Tests used:
[1] = target: Thymic stromal lymphopoietin (Homo sapiens) (UniProt Q969D9); assay: Inhibition of human N-terminal flag-tagged TSLP/human C-terminal octa histidine-tagged TSLPR interaction at 0.1 mM after 16 hrs by ELISA based spectrophotometric analysis
[2] = target: Thymic stromal lymphopoietin (Homo sapiens) (UniProt Q969D9); assay: Inhibition of human N-terminal flag-tagged TSLP/human C-terminal octa histidine-tagged TSLPR interaction at 0.3 mM after 16 hrs by ELISA based spectrophotometric analysis
[3] = target: Thymic stromal lymphopoietin (Homo sapiens) (UniProt Q969D9); assay: Inhibition of human N-terminal flag-tagged TSLP/human C-terminal octa histidine-tagged TSLPR interaction at 1 mM after 16 hrs by ELISA based spectrophotometric analysis relative to control

Sequence of Thymic stromal lymphopoietin (Homo sapiens) (Q969D9 whole entry): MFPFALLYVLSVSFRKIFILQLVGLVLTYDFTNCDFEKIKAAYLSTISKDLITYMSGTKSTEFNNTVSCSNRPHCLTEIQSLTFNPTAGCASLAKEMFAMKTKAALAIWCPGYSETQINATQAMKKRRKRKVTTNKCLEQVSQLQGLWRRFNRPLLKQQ

Structure (SMILES)	inhibition [1]	inhibition [2]	inhibition [3]
CC(=O)N[C@@H](C)C(=O)N[C@@H](CCCNC(=N)N)C(=O)N[C@@H](CCC(N)=O)C(=O)N[C@@H](CCCNC(=N)N)C(=O)N[C@@H](C)C(=O)N[C@@H](CO)C(=O)N[C@@H](C)C(=O)O (Ac-ARQRASA-OH)	30%	30%	26%
CC(=O)N[C@@H](C)C(=O)N[C@@H](CCCNC(=N)N)C(=O)N[C@@H](CCC(N)=O)C(=O)N[C@@H](CCCNC(=N)N)C(=O)N[C@@H](C)C(=O)N[C@@H](CO)C(=O)N[C@@H](C)C(=O)N[C@@H](Cc1c[nH]c2ccccc12)C(=O)O (Ac-ARQRASAW-OH)	50%	56%	65%
CC(=O)N[C@@H](CCCNC(=N)N)C(=O)N[C@@H](CCC(N)=O)C(=O)N[C@@H](CCCNC(=N)N)C(=O)N[C@@H](C)C(=O)N[C@@H](CO)C(=O)N[C@@H](C)C(=O)O (Ac-RQRASA-OH)	22%	22%	18%
CC(=O)N[C@@H](CCCNC(=N)N)C(=O)N[C@@H](CCC(N)=O)C(=O)N[C@@H](CCCNC(=N)N)C(=O)N[C@@H](C)C(=O)N[C@@H](CO)C(=O)N[C@@H](C)C(=O)N[C@@H](Cc1c[nH]c2ccccc12)C(=O)O (Ac-RQRASAW-OH)	38%	44%	56%
C[C@H](N)C(=O)N[C@@H](CCCNC(=N)N)C(=O)N[C@@H](CCC(N)=O)C(=O)N[C@@H](CCCNC(=N)N)C(=O)N[C@@H](C)C(=O)N[C@@H](CO)C(=O)N[C@@H](C)C(=O)O (H-ARQRASA-OH)	30%	32%	30%
C[C@H](N)C(=O)N[C@@H](CCCNC(=N)N)C(=O)N[C@@H](CCC(N)=O)C(=O)N[C@@H](CCCNC(=N)N)C(=O)N[C@@H](C)C(=O)N[C@@H](CO)C(=O)N[C@@H](C)C(=O)N[C@@H](Cc1c[nH]c2ccccc12)C(=O)O (H-ARQRASAW-OH)	42%	49%	60%
C[C@H](NC(=O)[C@H](CO)NC(=O)[C@H](C)NC(=O)[C@H](CCCNC(=N)N)NC(=O)[C@H](CCC(N)=O)NC(=O)[C@@H](N)CCCNC(=N)N)C(=O)O (H-RQRASA-OH)	19%	15%	18%
C[C@H](NC(=O)[C@H](CO)NC(=O)[C@H](C)NC(=O)[C@H](CCCNC(=N)N)NC(=O)[C@H](CCC(N)=O)NC(=O)[C@@H](N)CCCNC(=N)N)C(=O)N[C@@H](Cc1c[nH]c2ccccc12)C(=O)O (H-RQRASAW-OH)	38%	47%	46%

Second part, the compound after the results:

inhibition [1]	inhibition [2]	inhibition [3]	Structure (SMILES)
4%	11%	37%	CC(=O)N[C@@H](C)C(=O)N[C@@H](C)C(=O)N[C@@H](Cc1cnc[nH]1)C(=O)N[C@@H](Cc1ccc(O)cc1)C(=O)NCC(=O)N[C@@H](CC(C)C)C(=O)N[C@@H](CCC(=O)O)C(=O)O (Ac-AAHYGLE-OH)
2%	4%	26%	CC(=O)N[C@@H](C)C(=O)N[C@@H](C)C(=O)N[C@@H](Cc1cnc[nH]1)C(=O)N[C@@H](Cc1ccc(O)cc1)C(=O)NCC(=O)N[C@@H](CC(C)C)C(=O)N[C@@H](CCC(=O)O)C(=O)N[C@@H](C)C(=O)O (Ac-AAHYGLEA-OH)
5%	15%	52%	CC(=O)N[C@@H](CCCNC(=N)N)C(=O)N[C@@H](C)C(=O)N[C@@H](C)C(=O)N[C@@H](Cc1cnc[nH]1)C(=O)N[C@@H](Cc1ccc(O)cc1)C(=O)NCC(=O)N[C@@H](CC(C)C)C(=O)N[C@@H](CCC(=O)O)C(=O)O (Ac-RAAHYGLE-OH)
12%	11%	34%	CC(=O)N[C@@H](CCCNC(=N)N)C(=O)N[C@@H](C)C(=O)N[C@@H](C)C(=O)N[C@@H](Cc1cnc[nH]1)C(=O)N[C@@H](Cc1ccc(O)cc1)C(=O)NCC(=O)N[C@@H](CC(C)C)C(=O)N[C@@H](CCC(=O)O)C(=O)N[C@@H](C)C(=O)O (Ac-RAAHYGLEA-OH)
2%	3%	16%	CC(C)C[C@H](NC(=O)CNC(=O)[C@H](Cc1ccc(O)cc1)NC(=O)[C@H](Cc1cnc[nH]1)NC(=O)[C@H](C)NC(=O)[C@H](C)N)C(=O)N[C@@H](CCC(=O)O)C(=O)O (H-AAHYGLE-OH)
5%	23%	59%	CC(C)C[C@H](NC(=O)CNC(=O)[C@H](Cc1ccc(O)cc1)NC(=O)[C@H](Cc1cnc[nH]1)NC(=O)[C@H](C)NC(=O)[C@H](C)N)C(=O)N[C@@H](CCC(=O)O)C(=O)N[C@@H](C)C(=O)O (H-AAHYGLEA-OH)
4%	10%	45%	CC(C)C[C@H](NC(=O)CNC(=O)[C@H](Cc1ccc(O)cc1)NC(=O)[C@H](Cc1cnc[nH]1)NC(=O)[C@H](C)NC(=O)[C@H](C)NC(=O)[C@@H](N)CCCNC(=N)N)C(=O)N[C@@H](CCC(=O)O)C(=O)O (H-RAAHYGLE-OH)
7%	17%	35%	CC(C)C[C@H](NC(=O)CNC(=O)[C@H](Cc1ccc(O)cc1)NC(=O)[C@H](Cc1cnc[nH]1)NC(=O)[C@H](C)NC(=O)[C@H](C)NC(=O)[C@@H](N)CCCNC(=N)N)C(=O)N[C@@H](CCC(=O)O)C(=O)N[C@@H](C)C(=O)O (H-RAAHYGLEA-OH)
